From ChEMBL document CHEMBL5360622, “Leucettinibs, a Class of DYRK/CLK Kinase Inhibitors Inspired by the Marine Sponge Natural Product Leucettamine B” (J Med Chem, 2023)

Legend:
[1] = molecular target: Casein kinase I isoform epsilon (Homo sapiens, UniProt P49674)
[2] = molecular target: Cyclin-dependent kinase 5/CDK5 activator 1 (Homo sapiens, UniProt Q00535); format: cell-based, Sf9
[3] = molecular target: Dual specificity protein kinase CLK2 (Homo sapiens, UniProt P49760)
[4] = molecular target: Dual specificity protein kinase CLK3 (Homo sapiens, UniProt P49761); format: cell-based, Sf9
Chain of Dual specificity protein kinase CLK3 (P49761 whole entry): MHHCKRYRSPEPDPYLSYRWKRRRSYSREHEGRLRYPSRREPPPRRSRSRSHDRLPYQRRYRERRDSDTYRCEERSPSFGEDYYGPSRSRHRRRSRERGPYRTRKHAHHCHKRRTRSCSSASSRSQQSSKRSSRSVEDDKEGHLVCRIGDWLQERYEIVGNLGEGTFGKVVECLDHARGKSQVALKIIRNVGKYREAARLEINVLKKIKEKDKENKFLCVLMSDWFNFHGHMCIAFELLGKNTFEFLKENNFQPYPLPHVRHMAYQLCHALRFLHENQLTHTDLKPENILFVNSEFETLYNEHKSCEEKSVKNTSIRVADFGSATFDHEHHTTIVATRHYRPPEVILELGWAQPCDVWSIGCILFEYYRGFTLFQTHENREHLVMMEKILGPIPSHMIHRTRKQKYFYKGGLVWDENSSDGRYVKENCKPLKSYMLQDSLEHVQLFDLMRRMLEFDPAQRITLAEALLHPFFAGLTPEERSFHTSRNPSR

[5] = molecular target: Dual specificity protein kinase CLK4 (Homo sapiens, UniProt Q9HAZ1)
Chain of Dual specificity protein kinase CLK4 (Q9HAZ1 whole entry): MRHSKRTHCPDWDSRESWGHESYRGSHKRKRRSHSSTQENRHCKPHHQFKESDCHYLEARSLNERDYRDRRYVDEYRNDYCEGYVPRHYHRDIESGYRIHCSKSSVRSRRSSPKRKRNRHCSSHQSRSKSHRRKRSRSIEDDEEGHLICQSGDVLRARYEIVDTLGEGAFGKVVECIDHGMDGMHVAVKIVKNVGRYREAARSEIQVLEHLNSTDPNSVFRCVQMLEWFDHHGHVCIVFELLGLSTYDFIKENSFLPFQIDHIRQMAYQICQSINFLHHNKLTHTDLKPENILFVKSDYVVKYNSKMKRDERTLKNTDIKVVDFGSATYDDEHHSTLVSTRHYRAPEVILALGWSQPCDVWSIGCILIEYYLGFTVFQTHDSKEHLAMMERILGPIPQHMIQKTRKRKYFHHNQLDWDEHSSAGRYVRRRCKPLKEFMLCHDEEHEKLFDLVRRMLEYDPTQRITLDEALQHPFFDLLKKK

[6] = molecular target: T1, Dual specificity tyrosine-phosphorylation-regulated kinase 2 (Homo sapiens, UniProt Q92630)
T1 sequence (Q92630 whole entry): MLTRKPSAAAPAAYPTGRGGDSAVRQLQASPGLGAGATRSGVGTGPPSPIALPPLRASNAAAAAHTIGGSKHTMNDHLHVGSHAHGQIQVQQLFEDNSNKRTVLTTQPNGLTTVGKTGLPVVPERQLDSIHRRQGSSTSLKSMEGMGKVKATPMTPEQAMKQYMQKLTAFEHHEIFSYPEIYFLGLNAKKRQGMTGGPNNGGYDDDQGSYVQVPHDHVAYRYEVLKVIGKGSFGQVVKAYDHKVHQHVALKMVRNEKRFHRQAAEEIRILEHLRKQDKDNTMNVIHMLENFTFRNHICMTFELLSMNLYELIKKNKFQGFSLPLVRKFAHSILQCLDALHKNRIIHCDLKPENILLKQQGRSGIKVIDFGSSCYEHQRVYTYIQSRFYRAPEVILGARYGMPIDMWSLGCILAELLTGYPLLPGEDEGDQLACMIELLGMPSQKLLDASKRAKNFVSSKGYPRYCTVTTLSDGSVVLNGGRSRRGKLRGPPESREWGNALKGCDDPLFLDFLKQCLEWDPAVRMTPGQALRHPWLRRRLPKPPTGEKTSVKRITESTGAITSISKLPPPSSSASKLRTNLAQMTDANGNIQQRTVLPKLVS

[7] = molecular target: T2, Dual specificity tyrosine-phosphorylation-regulated kinase 3 (Homo sapiens, UniProt O43781)
T2 sequence (O43781 whole entry): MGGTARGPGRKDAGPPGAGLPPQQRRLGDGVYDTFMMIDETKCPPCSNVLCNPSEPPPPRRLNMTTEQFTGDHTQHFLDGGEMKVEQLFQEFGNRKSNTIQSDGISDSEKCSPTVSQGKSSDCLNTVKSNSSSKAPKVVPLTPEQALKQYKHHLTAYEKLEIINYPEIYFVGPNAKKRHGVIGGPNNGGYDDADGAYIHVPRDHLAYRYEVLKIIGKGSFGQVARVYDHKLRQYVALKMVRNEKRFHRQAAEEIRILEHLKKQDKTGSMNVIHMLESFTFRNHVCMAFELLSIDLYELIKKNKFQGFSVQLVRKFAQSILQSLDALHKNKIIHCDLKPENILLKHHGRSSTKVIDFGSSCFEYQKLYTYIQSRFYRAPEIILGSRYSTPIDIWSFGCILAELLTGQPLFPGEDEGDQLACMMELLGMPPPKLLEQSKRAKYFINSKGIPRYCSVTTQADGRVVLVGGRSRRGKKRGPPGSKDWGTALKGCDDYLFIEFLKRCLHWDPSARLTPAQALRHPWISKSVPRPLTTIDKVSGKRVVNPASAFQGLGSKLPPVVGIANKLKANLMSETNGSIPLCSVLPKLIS

[8] = molecular target: Glycogen synthase kinase-3 beta (Homo sapiens, UniProt P49841); format: cell-based, Sf9
Chain of Glycogen synthase kinase-3 beta (P49841 whole entry): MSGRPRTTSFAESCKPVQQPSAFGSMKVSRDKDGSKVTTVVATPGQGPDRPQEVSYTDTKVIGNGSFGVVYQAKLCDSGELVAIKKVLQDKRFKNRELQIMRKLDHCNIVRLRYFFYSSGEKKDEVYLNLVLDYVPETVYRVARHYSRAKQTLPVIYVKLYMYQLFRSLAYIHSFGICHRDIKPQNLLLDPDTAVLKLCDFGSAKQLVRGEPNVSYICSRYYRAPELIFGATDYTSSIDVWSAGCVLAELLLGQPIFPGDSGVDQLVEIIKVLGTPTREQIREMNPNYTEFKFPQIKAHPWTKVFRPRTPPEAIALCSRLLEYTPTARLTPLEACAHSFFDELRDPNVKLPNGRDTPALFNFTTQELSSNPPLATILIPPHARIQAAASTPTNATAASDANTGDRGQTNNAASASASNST

[9] = molecular target: T3, Dual specificity tyrosine-phosphorylation-regulated kinase 4 (Homo sapiens, UniProt Q9NR20)
T3 sequence (Q9NR20 whole entry): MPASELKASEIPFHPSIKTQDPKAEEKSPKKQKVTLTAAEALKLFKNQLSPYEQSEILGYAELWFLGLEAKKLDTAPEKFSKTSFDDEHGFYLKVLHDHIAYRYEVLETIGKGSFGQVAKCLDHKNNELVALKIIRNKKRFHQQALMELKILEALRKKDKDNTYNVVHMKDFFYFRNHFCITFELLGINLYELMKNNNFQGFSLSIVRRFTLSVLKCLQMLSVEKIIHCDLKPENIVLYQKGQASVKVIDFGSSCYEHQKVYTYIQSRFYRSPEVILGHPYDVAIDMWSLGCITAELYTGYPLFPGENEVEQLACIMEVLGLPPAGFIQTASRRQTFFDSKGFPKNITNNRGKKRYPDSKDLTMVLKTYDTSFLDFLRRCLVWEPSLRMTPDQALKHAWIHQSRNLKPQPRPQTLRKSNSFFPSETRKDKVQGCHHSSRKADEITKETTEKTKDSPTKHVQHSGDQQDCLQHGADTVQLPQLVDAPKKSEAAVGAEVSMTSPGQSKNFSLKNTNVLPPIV

Chain of Cyclin-dependent kinase 5/CDK5 activator 1 (Q00535 whole entry): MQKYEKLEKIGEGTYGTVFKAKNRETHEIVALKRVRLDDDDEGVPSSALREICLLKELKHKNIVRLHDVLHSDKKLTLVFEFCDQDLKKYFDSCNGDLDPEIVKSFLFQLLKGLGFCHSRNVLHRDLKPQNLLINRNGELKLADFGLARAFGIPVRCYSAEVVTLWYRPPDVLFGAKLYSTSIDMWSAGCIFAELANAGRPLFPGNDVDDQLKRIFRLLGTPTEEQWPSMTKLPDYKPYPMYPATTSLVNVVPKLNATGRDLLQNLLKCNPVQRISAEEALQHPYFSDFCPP
Chain of Cyclin-dependent kinase 5/CDK5 activator 1 (Q15078 whole entry, further chain): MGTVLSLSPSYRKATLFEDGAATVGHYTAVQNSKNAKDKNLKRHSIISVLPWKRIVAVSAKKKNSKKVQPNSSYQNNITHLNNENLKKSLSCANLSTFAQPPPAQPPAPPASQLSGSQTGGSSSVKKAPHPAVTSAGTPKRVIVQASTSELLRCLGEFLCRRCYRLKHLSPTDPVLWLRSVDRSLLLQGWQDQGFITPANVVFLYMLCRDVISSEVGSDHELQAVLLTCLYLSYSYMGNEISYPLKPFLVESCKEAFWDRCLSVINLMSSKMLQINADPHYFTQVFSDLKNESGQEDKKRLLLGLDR
Chain of Casein kinase I isoform epsilon (P49674 whole entry, canonical isoform): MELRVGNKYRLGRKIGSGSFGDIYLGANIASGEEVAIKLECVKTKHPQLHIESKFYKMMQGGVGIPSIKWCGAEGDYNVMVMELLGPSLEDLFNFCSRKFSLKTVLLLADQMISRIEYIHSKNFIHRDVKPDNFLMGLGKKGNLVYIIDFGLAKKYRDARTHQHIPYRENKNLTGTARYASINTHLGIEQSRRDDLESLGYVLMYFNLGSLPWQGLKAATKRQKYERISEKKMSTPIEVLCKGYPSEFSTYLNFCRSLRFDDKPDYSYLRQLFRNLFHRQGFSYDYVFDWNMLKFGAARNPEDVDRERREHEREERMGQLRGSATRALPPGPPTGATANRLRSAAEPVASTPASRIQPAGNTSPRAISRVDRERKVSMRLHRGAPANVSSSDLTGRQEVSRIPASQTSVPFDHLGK
Chain of Dual specificity protein kinase CLK2 (P49760 whole entry): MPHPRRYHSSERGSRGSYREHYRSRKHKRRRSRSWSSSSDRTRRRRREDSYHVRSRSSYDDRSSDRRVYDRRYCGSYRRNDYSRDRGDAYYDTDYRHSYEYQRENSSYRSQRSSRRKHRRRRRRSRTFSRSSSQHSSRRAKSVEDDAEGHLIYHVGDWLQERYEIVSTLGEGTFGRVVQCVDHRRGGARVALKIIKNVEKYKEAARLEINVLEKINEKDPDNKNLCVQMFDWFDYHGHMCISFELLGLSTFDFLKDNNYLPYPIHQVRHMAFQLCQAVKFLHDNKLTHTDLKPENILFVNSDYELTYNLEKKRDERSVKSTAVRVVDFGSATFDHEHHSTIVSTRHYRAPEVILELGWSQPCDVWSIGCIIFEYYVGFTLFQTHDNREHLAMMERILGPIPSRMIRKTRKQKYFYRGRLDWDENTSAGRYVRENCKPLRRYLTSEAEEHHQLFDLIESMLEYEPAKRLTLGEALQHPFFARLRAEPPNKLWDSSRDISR

| IC50 [1] | IC50 [2] | IC50 [3] | IC50 [4] | IC50 [5] | IC50 [6] | IC50 [7] | IC50 [8] | IC50 [9] | SMILES |
| --- | --- | --- | --- | --- | --- | --- | --- | --- | --- |
| > 10000 nM | > 10000 nM | 3480 nM | > 10000 nM | 100 nM | 5170 nM | > 10000 nM | > 10000 nM |  | CO[C@H]1Cc2ccccc2[C@H]1NC1=N/C(=C\c2ccc3ncsc3c2)C(=O)N1 (racemic) |
| > 10000 nM | > 10000 nM | 50 nM | 848 nM | 14 nM | 235 nM | 741 nM | 1270 nM |  | CO[C@@H]1Cc2ccccc2[C@H]1NC1=N/C(=C\c2ccc3ncsc3c2)C(=O)N1 (racemic) |
| > 10000 nM | > 10000 nM | 90 nM | 295 nM | 14 nM | 886 nM |  | 2740 nM | 1150 nM | O=C1NC(N[C@@H](CO)Cc2ccccc2)=N/C1=C\c1ccc2ncsc2c1 |
| > 10000 nM | > 10000 nM | 851 nM | 7460 nM | 107 nM | 4470 nM | 403 nM | > 10000 nM |  | CN1CCC2(CC1)CC(NC1=N/C(=C\c3ccc4ncsc4c3)C(=O)N1)C2 |
| > 10000 nM | > 10000 nM |  | 5040 nM | 351 nM | 4710 nM |  | > 10000 nM | > 10000 nM | Cc1nc2ccc(/C=C3\N=C(NC4CCCCC4)NC3=O)cc2s1 |
| > 10000 nM | > 10000 nM |  | 1790 nM | 12 nM | 592 nM |  | 6190 nM |  | O=C1NC(NCCCn2ccnc2)=N/C1=C\c1ccc2ncsc2c1 |
| > 10000 nM | > 10000 nM |  | 7010 nM | 71 nM | > 10000 nM | > 10000 nM | 9030 nM | > 10000 nM | O=C1NC(NCc2nc3ccccc3s2)=N/C1=C\c1ccc2ncsc2c1 |
| > 10000 nM | > 10000 nM | 349 nM | 697 nM | 34 nM | 1350 nM |  | 3710 nM | 2150 nM | O=C1NC(NCCc2ccccn2)=N/C1=C\c1ccc2ncsc2c1 |
| > 10000 nM | > 10000 nM |  | 2700 nM | 12 nM | 2810 nM | 2320 nM | > 10000 nM | 4890 nM | CN1CCC(NC2=N/C(=C\c3ccc4ncsc4c3)C(=O)N2)C1=O (racemic) |
| > 10000 nM | > 10000 nM |  | 3860 nM | 78 nM | 7830 nM | 647 nM | > 10000 nM | > 10000 nM | CN1CCC(NC2=N/C(=C\c3ccc4ncsc4c3)C(=O)N2)CC1 |
| > 10000 nM | > 10000 nM | 3520 nM | > 10000 nM | 71 nM | 6530 nM | 3060 nM | > 10000 nM |  | Cc1ccc(NC2=N/C(=C\c3ccc4ncsc4c3)C(=O)N2)cc1F |
| > 10000 nM | 3290 nM | 531 nM | 167 nM | 161 nM | 702 nM |  | 659 nM | 1740 nM | COC(=O)C1(NC2=N/C(=C\c3ccc4ncsc4c3)C(=O)N2)C2CC3CC(C2)CC1C3 (stereo unspecified) |
| > 10000 nM | 5900 nM | 162 nM | 119 nM |  | 109 nM | 611 nM | > 10000 nM | 570 nM | O=C1NC(N[C@H]2CCCOC2)=N/C1=C\c1ccc2ncsc2c1 |
| > 10000 nM | > 10000 nM |  | 713 nM | 3 nM | 1540 nM |  | 429 nM | 2040 nM | O=C1NC(N[C@H]2c3ccccc3C[C@@H]2O)=N/C1=C\c1ccc2ncsc2c1 |
| > 10000 nM | > 10000 nM | 80 nM | 1090 nM |  | 1380 nM | 695 nM | 4160 nM | 410 nM | O=C1NC(NC(CO)C2CCCCC2)=N/C1=C\c1ccc2ncsc2c1 (racemic) |
| > 10000 nM | > 10000 nM | 627 nM | 2260 nM | 34 nM | 2390 nM | 4030 nM | 7740 nM |  | O=C1NC(Nc2ncccn2)=N/C1=C\c1ccc2ncsc2c1 |
| 8460 nM | 2380 nM | 24 nM | 175 nM |  | 391 nM | 296 nM | 5690 nM | 321 nM | O=C1NC(NC2CCCC(F)(F)C2)=N/C1=C\c1ccc2ncsc2c1 (racemic) |
| > 10000 nM | > 10000 nM | 303 nM | 4140 nM | 32 nM | 3950 nM |  | 9030 nM | 8330 nM | Cc1cnc(CNC2=N/C(=C\c3ccc4ncsc4c3)C(=O)N2)cn1 |
| > 10000 nM | > 10000 nM | 100 nM | 4390 nM | 26 nM |  |  | 3310 nM | 3120 nM | O=C1NC(N[C@@H](CO)CC2CCCCC2)=N/C1=C\c1ccc2ncsc2c1 |
| > 10000 nM | > 10000 nM |  | 880 nM | 24 nM | 2300 nM | 1900 nM | 13000 nM | 2600 nM | CO[C@H]1CC[C@H](NC2=N/C(=C\c3ccc4ncsc4c3)C(=O)N2)CC1 |
| > 10000 nM | > 10000 nM | 102 nM | 357 nM |  | 260 nM | 692 nM | 4750 nM | 574 nM | CC1(C)CCC(NC2=N/C(=C\c3ccc4ncsc4c3)C(=O)N2)CO1 (racemic) |
| > 10000 nM | > 10000 nM | 127 nM | 143 nM |  | 240 nM | 337 nM | 3260 nM | 260 nM | O=C1NC(NC2CC3CCC2C3)=N/C1=C\c1ccc2ncsc2c1 (racemic) |
| > 10000 nM | 4660 nM | 14 nM | 1660 nM | 19 nM | 145 nM |  | 2440 nM | 597 nM | CC(=O)OC12CC3CC(CC(NC4=N/C(=C\c5ccc6ncsc6c5)C(=O)N4)(C3)C1)C2 |
| > 10000 nM | > 10000 nM |  | 2040 nM | 11 nM | 390 nM |  | > 10000 nM | 180 nM | O=C1NC(N[C@@H]2c3ccccc3C[C@H]2O)=N/C1=C\c1ccc2ncsc2c1 |

| SMILES | IC50 [1] | IC50 [2] | IC50 [3] | IC50 [4] | IC50 [5] | IC50 [6] | IC50 [7] | IC50 [8] | IC50 [9] |
| --- | --- | --- | --- | --- | --- | --- | --- | --- | --- |
| O=C1NC(N[C@@H]2CN3CCC2CC3)=N/C1=C\c1ccc2ncsc2c1 |  | > 10000 nM | 1170 nM | 4350 nM | 169 nM |  | 483 nM | > 10000 nM |  |
| O=C1NC(Nc2ccccc2)=N/C1=C\c1ccc2c(c1)OCO2 |  |  |  | 1200 nM | 23 nM |  |  | 600 nM |  |
| O=C1NC(N[C@H]2CN3CCC2CC3)=N/C1=C\c1ccc2ncsc2c1 |  | > 10000 nM | 40 nM | 1750 nM | 11 nM |  | 199 nM | > 10000 nM |  |
